Source: US20140163048A1, “COMPOSITIONS WITH INCREASED STABILITY FOR INHIBITING TRANSIENT RECEPTOR POTENTIAL ION CHANNEL TRPA1” (Cubist Pharmaceuticals, Inc., priority 2012, published 2014)
Entries after “also recorded” stand apart in the source; their conditions may differ.

Columns and labels:
[1] = test system: serum chemistry biomarkers of hepatotoxicity; assay: Hepatotoxicity serum biomarker study, oral dose; type: in vivo, dogs; details: for serum biomarkers of hepatotoxicity (ALT, AST, ALP, GGT): dogs, 50 mg/kg PO; for ALT levels elevation: single PO dose of 50 mg/kg
Description: […] 11A, showing measurements of alanine aminotranferease [ALT], aspartate aminotranferease [AST], alkaline phosphatase [ALP] and gamma-glutamyl transferase [GGT] in the dogs at each dose level (each bar represents a measurement from 1 dog in the study).

[2] = 7-day i.p. repeat dose screening toxicity study; type: in vivo, rats; details: 50 mg/kg/day i.p. for 7 consecutive days
Procedure: The compound of Formula (I) was evaluated in a 7-day repeat dose screening toxicity study in female rats. In order to maximize systemic exposure, rats were administered compound of Formula (I) i.p. at 50 mg/kg/day for 7 consecutive days, to obtain the results shown in FIG. 9. Clinical chemistry parameters were evaluated on Days 3 and 8. Histopathology was performed on select organs including the liver, kidney, spleen, and lung.

[3] = test system: TRP channels and voltage-gated ion channels; assay: Selectivity over the panel of eight tested channels; type: cell-based, human; details: eight channels of Table 2
Procedure: Data for TRPA1 inhibition and the selectivity of TRPA1 inhibition was obtained by this method for the compound of Formula (I) and included in Table 1 and Table 2. All currents were recorded in whole-cell configuration using EPC-9 and EPC-10 amplifiers and Patchmaster software (HEKA). […] The standard pipette solution consisted of 140 mM CsAsp, 10 mM EGTA, 10 mM HEPES, 2.27 mM MgCl2, 1.91 mM CaCl2, 4 mM MgATP, and 0.1-0.3 mM Na2GTP, with pH adjusted to 7.2 with CsOH. In addition, a solution containing 145 mM CsCl, 10 mM HEPES, 10 mM EGTA and 1 mM MgCl2 (pH 7.2 adjusted with csOH) can be used. The standard bath solution contained 150 mM NaCl, 10 mM HEPES, 10 mM glucose, 4.5 mM KCl, 1 mM EGTA, 3 mM MgCl2, with pH adjusted to 7.4 with NaOH. In some instances, 2 mM CaCl2 was added in place of EGTA and the concentration of MgCl2 was reduced to 1 mM.

Compound	serum biomarkers of hepatotoxicity (ALT, AST, ALP, GGT) [1]	ALT levels elevation ([1]; female beagle dogs)	ALT levels elevation ([1]; male dogs)	serum biomarkers of hepatotoxicity ([2]; rats)	histopathology of liver, kidney, spleen, lung ([2]; female rats, days 3 and 8, 50 mg/kg/day)	selectivity for block of TRPA1 over all other tested channels [3]
C[C@H]1CCCN1c1ccc(-c2csc(NC(=O)Cn3cnc4c3c(=O)n(C)c(=O)n4C)n2)cc1F [Formula (III)]	did elevate serum biomarkers of hepatotoxicity	up to 130 fold	up to 60 fold	did elevate serum biomarkers of hepatotoxicity		
C[C@H]1CCCN1c1ncc(-c2cccc(NC(=O)Cn3cnc4c3c(=O)n(C)c(=O)n4C)n2)cn1 [Formula (I)]	did not elevate serum biomarkers of hepatotoxicity or acute phase response				No histopathological findings; also recorded: no adverse effects	at least 100 fold
